In patent US20210220301A1, “Pharmaceutical or Nutritional Combination Comprising Beta-Hydroxy-Betamethylbutyrate” (Abbott Laboratories, priority 2016, published 2021):

Legend:
[1] = tested on: lean body mass; details: humans; Deutz et al., Clin Nutr. 2013; cited from earlier work
[2] = tested on: rats subjected to dexamethasone-induced muscle loss; assay: Dexamethasone-induced muscle loss in rats: soleus muscle mass after 21 days; assay type: in vivo, Sprague-Dawley rats; details: 200 mg/kg/day white curcumin alone, co-administered with 0.1 mg/kg/day dexamethasone i.p., day 21, FIG. 1, t-test P<0.05
Protocol: A study was carried out to investigate the effect of a composition comprising HMB and white curcumin (THC) in a well-established animal model for human muscle loss (β-Hydroxy-β-methylbutyrate (HMB) normalizes dexamethasone-induced autophagy-lysosomal pathway in skeletal muscle. Giron M D, Vilchez J D, Shreeram S, Salto R, Manzano M, Cabrera E, Campos N, Edens N K, Rueda R, Lopez-Pedrosa J M. PLoS One. 2015 Feb. 6; 10(2):e0117520. doi: 10.1371/journal.pone.0117520. eCollection 2015).
Experimental design—Male Sprague-Dawley rats (8-10 weeks old) (n=42) having a body weight of 270-310 g were randomly assigned to seven experimental groups (six rats per group). Groups 1-6 were administered 0.1 mg/kg/day dexamethasone (a synthetic glucocorticoid) by intraperitoneal injection for 21 days to induce muscle loss. The dexamethasone was administered at 2 mL/kg of 1.75 mg dexamethasone in 35 mL saline. Group 7 (a sham control) was administered saline without the dexamethasone.
Group 1 (a pathological control) was administered the 0.1 mg/kg/day dexamethasone alone. […]
The body weight of each rat was measured daily. On day 21 the soleus and rectus femoris muscles from each rat were collected and weighed and the lean mass of each rat was recorded. The fore limb and hind limb grip strengths were also measured. […]

CC(C)(O)CC(=O)O [HMB, 3-hydroxy-3-methylbutanoic acid]
minimum dose of HMB at which benefits (preserving lean body mass and muscle strength) occur [1]: 50 mg/kg/day

COc1cc(CCC(=O)CC(=O)CCc2ccc(O)c(OC)c2)ccc1O [white curcumin, 1,7-bis(4-hydroxy-3-methoxyphenyl)heptane-3,5-dione]
soleus muscle mass relative to the pathological control [2]: did not have a significant effect
